# Data published in patent publication US10975079B2, “4-amino-3-phenylamino-6-phenylpyrazolo[3,4-d]pyrimidine derivatives for use as BCRP inhibitors in therapeutic treatments” (SCANDION ONCOLOGY A/S, priority 2015, dated 2021).
# Experiments:
# BCRP = target: T1, BCRP (Homo sapiens, UniProt Q9UNQ0); assay: BCRP fluorimetric inhibition assay, Hoechst 33342 substrate, recombinant CHO-K1 cells; format: cell-based; conditions: Hoechst 33342 (5 μm) substrate, 20 min at 37° C., fluorimetry
# T1 construct: expressed in transfected cells; host or cells: CHO-K1
# T1 sequence (Q9UNQ0 1-655): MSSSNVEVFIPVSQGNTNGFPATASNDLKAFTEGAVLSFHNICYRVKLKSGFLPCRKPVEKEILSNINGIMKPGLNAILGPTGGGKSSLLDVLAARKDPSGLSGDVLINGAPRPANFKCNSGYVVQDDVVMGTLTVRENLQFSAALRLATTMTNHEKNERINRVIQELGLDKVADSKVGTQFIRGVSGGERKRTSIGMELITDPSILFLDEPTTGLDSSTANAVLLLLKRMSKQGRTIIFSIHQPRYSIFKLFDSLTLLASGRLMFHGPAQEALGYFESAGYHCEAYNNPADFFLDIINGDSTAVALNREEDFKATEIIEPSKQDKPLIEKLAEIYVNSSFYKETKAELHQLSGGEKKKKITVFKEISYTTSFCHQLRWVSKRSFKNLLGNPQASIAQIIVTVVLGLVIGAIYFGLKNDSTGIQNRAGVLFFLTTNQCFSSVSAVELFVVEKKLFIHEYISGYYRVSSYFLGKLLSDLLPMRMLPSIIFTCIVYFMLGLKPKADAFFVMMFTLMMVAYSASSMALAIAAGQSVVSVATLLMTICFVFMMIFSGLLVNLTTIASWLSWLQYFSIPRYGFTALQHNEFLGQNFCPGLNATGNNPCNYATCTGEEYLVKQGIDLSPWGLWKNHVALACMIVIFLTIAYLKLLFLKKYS
# Method: The IC-50 value of OBR 5-340 and MS 112 were determined according to the method described by Paturi D. K, et al in Int. J. Pharm. (2010), 384: 32-38. The source used for the determination was human recombinant CHO-K1 cells, while Hoechst 33342 (5 μm) was used as the substrate. The cells were incubated for 20 min at 37° C. and the detection was accomplished by fluorimetry.
# Fluorimetric Inhibition Assay:
# The percent of control is calculated using the following equation.
# In this formula, “Compound” is the individual reading in the presence of the test compound. “T1” is the mean reading in the absence of the test compound. Background is the mean reading in the presence of the highest effective concentration of the reference inhibitor.
# The percent of inhibition is calculated by subtracting the percent of control from 100. The IC50 value (concentration causing a half-maximal inhibition of the control value) is determined by non-linear regression analysis of the concentration-response curve using the Hill equation.
# CYP2B6 [1] = target: T2, CYP2B6 (Homo sapiens, UniProt P20813); assay: Cytochrome P450 inhibition (DMPK studies); format: in vitro ADME
# T2 sequence (P20813 1-491): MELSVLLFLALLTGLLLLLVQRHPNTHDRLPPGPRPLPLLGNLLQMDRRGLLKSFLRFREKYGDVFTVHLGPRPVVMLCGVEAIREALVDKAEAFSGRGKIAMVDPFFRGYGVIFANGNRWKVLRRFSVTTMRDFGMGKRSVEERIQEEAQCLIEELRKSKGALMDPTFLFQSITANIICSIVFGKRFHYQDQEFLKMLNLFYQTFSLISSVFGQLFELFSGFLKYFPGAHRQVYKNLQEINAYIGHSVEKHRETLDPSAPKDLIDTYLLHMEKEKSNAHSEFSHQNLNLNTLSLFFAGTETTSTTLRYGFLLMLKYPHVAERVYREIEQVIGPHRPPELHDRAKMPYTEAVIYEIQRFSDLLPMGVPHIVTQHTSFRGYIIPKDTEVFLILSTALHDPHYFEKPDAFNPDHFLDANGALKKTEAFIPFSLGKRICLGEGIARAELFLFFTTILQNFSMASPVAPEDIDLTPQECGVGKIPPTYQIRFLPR
# CYP2B6 [2] = assay: Cytochrome P450 induction (DMPK studies); format: in vitro ADME
# Source text: (§1) Also no induction of CYP1A2, CYP2B6, and CYP3A4 could be found.
# CYP1A2 = assay: Cytochrome P450 induction (DMPK studies); format: in vitro ADME
# Source text: as §1
# CYP3A4 = assay: Cytochrome P450 induction (DMPK studies); format: in vitro ADME
# Source text: as §1
# CYP1A = assay: Cytochrome P450 inhibition (DMPK studies); format: in vitro ADME
# CYP2C19 = CYP2C19 (Homo sapiens, UniProt P33261); assay: Cytochrome P450 inhibition (DMPK studies); format: in vitro ADME
# Source text: as §1
# CYP3A = assay: Cytochrome P450 inhibition (DMPK studies); format: in vitro ADME
# Source text: as §1
# CYP2C8 = target: T3, CYP2C8 (Homo sapiens, UniProt P10632); assay: Cytochrome P450 inhibition (DMPK studies); format: in vitro ADME
# T3 sequence (P10632 1-490): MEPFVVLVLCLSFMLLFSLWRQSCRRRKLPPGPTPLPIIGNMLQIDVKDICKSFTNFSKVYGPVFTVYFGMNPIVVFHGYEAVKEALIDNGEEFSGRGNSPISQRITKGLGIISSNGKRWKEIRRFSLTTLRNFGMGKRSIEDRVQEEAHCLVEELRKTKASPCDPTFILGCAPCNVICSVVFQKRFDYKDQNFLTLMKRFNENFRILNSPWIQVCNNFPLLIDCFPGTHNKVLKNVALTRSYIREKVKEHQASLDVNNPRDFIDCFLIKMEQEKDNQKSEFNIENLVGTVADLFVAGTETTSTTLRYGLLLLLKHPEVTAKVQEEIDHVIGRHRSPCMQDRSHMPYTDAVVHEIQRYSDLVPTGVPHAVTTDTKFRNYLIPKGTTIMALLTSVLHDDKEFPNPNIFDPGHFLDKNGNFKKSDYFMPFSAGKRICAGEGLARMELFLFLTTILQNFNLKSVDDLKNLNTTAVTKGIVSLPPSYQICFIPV
# Source text: as §1
# CYP2C9 = CYP2C9 (Homo sapiens, UniProt P11712); assay: Cytochrome P450 inhibition (DMPK studies); format: in vitro ADME
# Source text: as §1
# CYP2D6 = CYP2D6 (Homo sapiens, UniProt P10635); assay: Cytochrome P450 inhibition (DMPK studies); format: in vitro ADME
# Source text: as §1
# Chain of CYP2C9 (P11712 whole entry): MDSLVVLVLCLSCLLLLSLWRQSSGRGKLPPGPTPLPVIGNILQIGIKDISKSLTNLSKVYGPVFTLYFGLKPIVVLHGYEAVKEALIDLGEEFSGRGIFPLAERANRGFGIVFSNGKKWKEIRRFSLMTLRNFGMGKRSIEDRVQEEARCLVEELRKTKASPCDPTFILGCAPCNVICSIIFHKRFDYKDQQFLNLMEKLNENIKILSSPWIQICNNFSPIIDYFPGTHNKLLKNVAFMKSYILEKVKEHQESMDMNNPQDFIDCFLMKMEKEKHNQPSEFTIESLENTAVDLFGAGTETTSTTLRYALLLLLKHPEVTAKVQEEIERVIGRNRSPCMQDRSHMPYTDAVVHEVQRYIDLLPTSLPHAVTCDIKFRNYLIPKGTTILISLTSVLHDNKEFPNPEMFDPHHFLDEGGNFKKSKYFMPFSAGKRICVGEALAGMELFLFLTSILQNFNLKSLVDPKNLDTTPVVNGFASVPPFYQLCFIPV
# Chain of CYP2D6 (P10635 whole entry): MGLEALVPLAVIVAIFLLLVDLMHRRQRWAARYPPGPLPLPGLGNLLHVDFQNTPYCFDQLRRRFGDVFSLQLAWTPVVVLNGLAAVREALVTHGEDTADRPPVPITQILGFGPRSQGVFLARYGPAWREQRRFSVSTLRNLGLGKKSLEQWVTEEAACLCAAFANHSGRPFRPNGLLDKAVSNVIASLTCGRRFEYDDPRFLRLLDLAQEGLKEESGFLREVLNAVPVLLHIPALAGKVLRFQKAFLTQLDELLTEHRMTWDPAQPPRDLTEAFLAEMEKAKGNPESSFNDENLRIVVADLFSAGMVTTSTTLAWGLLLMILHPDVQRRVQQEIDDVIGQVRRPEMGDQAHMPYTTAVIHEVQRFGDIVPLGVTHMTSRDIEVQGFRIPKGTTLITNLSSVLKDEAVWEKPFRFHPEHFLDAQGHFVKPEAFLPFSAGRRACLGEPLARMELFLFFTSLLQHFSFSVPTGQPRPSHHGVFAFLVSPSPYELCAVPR
# Chain of CYP2C19 (P33261 whole entry): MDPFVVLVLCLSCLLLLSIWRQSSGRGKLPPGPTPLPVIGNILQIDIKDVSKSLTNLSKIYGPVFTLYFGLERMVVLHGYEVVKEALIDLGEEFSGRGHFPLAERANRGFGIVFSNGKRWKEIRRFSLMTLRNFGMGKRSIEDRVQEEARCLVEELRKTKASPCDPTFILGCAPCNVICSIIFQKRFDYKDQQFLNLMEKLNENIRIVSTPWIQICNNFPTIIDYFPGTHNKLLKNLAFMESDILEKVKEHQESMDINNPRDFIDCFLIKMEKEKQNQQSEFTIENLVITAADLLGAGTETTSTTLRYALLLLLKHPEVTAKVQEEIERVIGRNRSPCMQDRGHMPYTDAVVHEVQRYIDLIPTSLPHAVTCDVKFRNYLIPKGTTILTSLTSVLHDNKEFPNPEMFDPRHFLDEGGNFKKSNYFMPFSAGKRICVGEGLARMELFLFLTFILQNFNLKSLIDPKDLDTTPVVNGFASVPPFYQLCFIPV
Structure (SMILES),IC50 (BCRP) [µM],inhibition of CYP2B6 (CYP2B6 [1]),induction of CYP2B6 (CYP2B6 [2]),induction of CYP1A2 (CYP1A2),induction of CYP3A4 (CYP3A4),inhibition of CYP1A (CYP1A),inhibition of CYP2C19 (CYP2C19),inhibition of CYP3A (CYP3A),inhibition of CYP2C8 (CYP2C8),inhibition of CYP2C9 (CYP2C9),inhibition of CYP2D6 (CYP2D6)
"Nc1nc(-c2ccc(OC(F)(F)F)cc2)nc2[nH]nc(Nc3ccccc3)c12 [MS-112, 4-amino-3-phenylamino-6-[4-(trifluormethoxy)-phenyl]pyrazolo[3,4-d]pyrimidine]",~100,–,–,–,–,–,–,–,–,–,–
"Nc1nc(-c2ccccc2)nc2[nH]nc(Nc3ccc(C(F)(F)F)cc3)c12 [OBR-5-340, 4-amino-3-(4-trifluormethyl-phenyl)amino-6-phenylpyrazolo[3,4-d]pyrimidine]",1.7,does not inhibit,no induction,no induction,no induction,does not inhibit,does not inhibit,does not inhibit,does not inhibit,does not inhibit,does not inhibit
